Source: article PMC9967674, “Characterization and Functional Analysis of OcomOBP7 in Ophraella communa Lesage” (Insects, 2023)

How the values were obtained:
OcomOBP7 [1] = test: Fluorescence competitive binding assay (1-NPN displacement); set-up: species or system Ophraella communa; conditions: 1-NPN 2 μM; for Ki: Ki = [IC50]/(1 + [1-NPN]/K1-NPN), OcomOBP7 2 μM, pH 7.4, read-out: Ki (dissociation constant); for IC50: recombinant OcomOBP7 2 μM, 50 mM Tris-HCl pH 7.4, ligand 2–20 μM
Description: Based on previous research on the volatiles of A. artemisiifolia, 26 standard chemical odors were selected to verify the binding characteristics of OcomOBP7 using a fluorescence binding assay (Table 2).
(§1) Fluorescence competition binding experiments were performed using an F-380 fluorescence spectrophotometer (Gangdong Technology, Tianjin, China), and the quartz cuvette was 1 cm wide. The excitation and emission slits were 10 nm, the sensitivity was 2 s, the emission wavelength range was 360–500 nm, the excitation wavelength was 337 nm, and the scanning speed was 1200 nm/min. The fluorescent probe, 1-NPN, was dissolved in a chromatographic methanol solution at a concentration of 1 mM. The target protein was diluted to 2 μM with 50 mM Tris-HCl (pH 7.4), and 1 mL of protein diluent was added to the cuvette. The 1-NPN fluorescent probe was added to the protein diluent to obtain a final concentration of 2–20 μM and was allowed to stand for 30 s after mixing. The maximum fluorescence value for each addition of 1-NPN was recorded, and three replicates were used. The 1-NPN fluorescent probe was added to the protein diluent at a final concentration of 2 μM, mixed well, and allowed to stand for 30 s. The maximum fluorescence intensity of 1-NPN was recorded. The odorant ligand was then added at a final concentration of 2–20 μM, and the maximum fluorescence value produced by the mixed solution was determined.
The dissociation constants Ki of OcomOBP7 and the fluorescent ligand compounds were calculated using the Scatchard equation. The formula is as follows: Ki = [IC50]/(1 + [1-NPN]/K1-NPN), where [1-NPN] represents the concentration of unbound 1-NPN, and K1-NPN is the binding constant of the OcomOBP7/1-NPN complex.

O. communa antennae [2] = test: Electroantennography (EAG) after RNAi; assay type: in vivo, Ophraella communa; conditions: odorant 10 μg/μL in n-hexane, 10 μL; for EAG response of O. communa antennae: after injection of dsRNA (dsOBP7), 48 h; for average EAG response of O. communa antennae: dsEGFP control group, 48 h after injection
Description: dsRNA templates were synthesized by PCR using primers containing the T7 promoter sequence as templates. dsRNA was synthesized in vitro using a T7 RNAi Transcription Kit (Ambion Inc., Waltham, MA, USA) according to the manufacturer’s instructions. dsRNA was dissolved in DEPC water and its concentration determined using a Nanophotometer P330 (Implen, Germany). The quality of RNA was determined using 1% gel electrophoresis. Female and male adults with an initial emergence of <12 h were injected. A Nanoliter 2000 microinjector (WPI, Sarasota, FL, USA) was used to inject 1 ng of dsRNA into the pronotum of beetles. dsEGFP was used as a control. After injection, the beetles were kept in Petri dishes and fed fresh A. artemisiifolia leaves daily.
Based on the fluorescence binding experimental results, α-pinene, ocimene, and myrcene were used for the electrophysiological experiments. […] Therefore, the odorants in this experiment were dissolved in n-hexane at a final concentration of 10 μg/μL, with n-hexane alone serving as a blank control. Filter paper strips with 10 μL of odorant were placed in a Pasteur Pipette for EAG experiments. The head and end of one antenna of the O. communa adult were cut off with a blade 48 h after the injection of dsRNA. A glass electrode filled with KCl conductivity liquid was inserted into the incision of the head of the O. communa and then connected to the electroantennogram system. The antenna incision was connected to a glass electrode at the other end using a micromanipulator. Each odorant was stimulated for 0.2 s with an interval of more than 30 s. Each treatment consisted of more than 20 biological replicates. Finally, the response curve was recorded using the EAG2000 software.

O. communa = test system: O. communa; set-up: method as in previous experiment results (unpublished data); conditions: ref previous experiment results (unpublished data); cited from earlier work
O. communa antennae [3] = test system: O. communa antennae; set-up: method as in a previous experiment; conditions: ref a previous experiment; cited from earlier work
OcomOBP7 [4] = test: Binding of fluorescent probe 1-NPN to OcomOBP7 (binding curve, Scatchard); set-up: species or system Ophraella communa; conditions: OcomOBP7 2 μM, 1-NPN 2–20 μM, pH 7.4; read-out: binding constant (Kd) of the protein and probe 1-NPN
Description: as §1
The dissociation constants Ki of OcomOBP7 and the fluorescent ligand compounds were calculated using the Scatchard equation. […]

Row | Compound | Ki (OcomOBP7 [1]) | IC50 (OcomOBP7 [1]) | EAG response of O. communa antennae (O. communa antennae [2]) | average EAG response of O. communa antennae (O. communa antennae [2]) | attraction of the beetles (O. communa) | activation of antennal response via the EAG method (O. communa antennae [3]) | Kd (OcomOBP7 [4])
1 | C=C1CCC2CC1C2(C)C (stereo not drawn) [β-Pinene] | 10.9 ± 0.59 µM | 17.2 µM |  |  |  |  | 
2 | C=CC(C)=CCC=C(C)C [Ocimene] | 1.23 ± 0.11 µM | 1.94 µM | 0.14 ± 0.01 | 0.19 ± 0.01 | significantly attract |  | 
3 | C=C1C2CCC(C2)C1(C)C (stereo not drawn) [Camphene] | 9.85 ± 0.66 µM | 15.5 µM |  |  |  |  | 
4 | C=C(C)[C@H]1CC=C(C)CC1 [(R)-(+)-Dipentene] | 2.22 ± 0.11 µM | 3.5 µM |  |  |  |  | 
5 | CC(=O)OC1CC2CCC1(C)C2(C)C (stereo not drawn) [Bornyl acetate] | 20.37 ± 0.07 µM | 32.2 µM |  |  |  |  | 
6 | C=CC(=C)CCC=C(C)C [Myrcene] | 3.97 ± 0.85 µM | 6.26 µM | 0.09 ± 0.01 | 0.10 ± 0.01 | significantly attract |  | 
7 | CCCCCCCC [n-Octane] | 0.67 ± 0.12 µM | 1.05 µM |  |  |  |  | 
8 | CC1=CCC2CC1C2(C)C (stereo not drawn) [α-Pinene] | 6.55 ± 0.05 µM | 10.3 µM | 0.28 ± 0.02 | 0.36 ± 0.03 | significantly attract |  | 
9 | CC1=CC[C@H](C(C)C)C=C1 [α-phellandrene] | 2.91 ± 0.42 µM | 4.59 µM |  |  |  |  | 
10 | CC1=CCC(C(C)C)=CC1 [Y-Terpinene] | 4.7 ± 0.32 µM | 7.42 µM |  |  |  |  | 
11 | C=CC(=C)CC/C=C(\C)CCC=C(C)C [(E)-β-farnesene] | 0.48 ± 0.04 µM | 0.76 µM |  |  |  | cannot activate the antennal response | 
12 | (S)-(-)-Limonene | 2.55 ± 0.4 µM | 4.02 µM |  |  |  |  | 
13 | c1ccc(Nc2cccc3ccccc23)cc1 [1-NPN] |  |  |  |  |  |  | 1.47 ± 0.2 µM
14 | C=C(C)C1CC=C(C)CC1 (racemic) [DL-Limonene] | 2.84 ± 0.2 µM | 4.48 µM |  |  |  |  | 
15 | C=C1CCC2(C(C)C)CC12 (stereo not drawn) [Sabinene] | 4.75 ± 0.14 µM | 7.49 µM |  |  |  |  | 
